According to patent US20260256792A1, “TREATMENT OF CHRONIC SPONTANEOUS URTICARIA BY ADMINISTERING (R)-2-[3-[4-AMINO-3-(2-FLUORO-4-PHENOXY-PHENYL)PYRAZOLO[3,4-D]PYRIMIDIN-1-YL]PIPERIDINE-1-CARBONYL]-4-METHYL-4-[4-(OXETAN-3-YL)PIPERAZIN-1-YL]PENT-2-ENENITRILE” (priority 2023, published 2026):

Tested on: moderate-to-severe chronic spontaneous urticaria (CSU)
Assay: Phase 2 CSU study: itch severity score over 7 days (ISS7)
Type: in vivo, human
Conditions: for Change from Baseline in ISS7 at Week 12, LS Mean Diff vs. placebo / Change from Baseline in ISS7 at Week 12, Mean / Change from Baseline in ISS7 at Week 12, LS Mean: Omalizumab-naïve population; for ISS7 change from baseline at Week 12, LS Mean / ISS7 change from baseline at Week 12, LS Mean Diff vs. placebo: ANCOVA
From the text: The study comprises a 12 week, randomized, double-blind, placebo-controlled, multi-center, dose-ranging efficacy and safety phase, followed by a 40 week open label extension (OLE) phase (see FIG. 1). The study consists of three phases and an optional OLE phase. […] Clinically, CSU is characterized by the spontaneous and recurrent appearance of pruritic hives. The proposed primary endpoints were the UAS7 at Week 12 in EU and EU reference countries and the ISS7 in the US. Regardless of where a participant was from, all assessments were the same. The UAS7 score is a composite score containing both the HSS7 and the ISS7. This allowed a global assessment of the two key components of urticaria: hives and itch. […] The UAS is a validated PRO measure. […] The daily UAS scores range from 0 to 6 point/day. […] Patients were to complete the UAS using the e-diary. […] The following secondary endpoints were to be analyzed using the same approach as for the primary endpoint: • Change from baseline in UAS7 at Week 4 • Change from baseline in UAS7 at Week 12 (for US and US reference countries) • Change from baseline in ISS7 at Week 12 (except US and US reference countries) • Change from baseline in HSS7 at Week 12

[1] = 400 mg BID, Race All the Others
[2] = 400 mg BID, Region Eastern Europe
[3] = 400 mg BID, Region Latin America
[4] = 400 mg BID, Region Western Countries
[5] = 400 mg BID, omalizumab-naïve population
[6] = 400 mg BID, omalizumab-naïve population with outlier removed
[7] = 400 mg QPM, Age group (years) <44 (Median)
[8] = 400 mg QPM, Age group (years) <65
[9] = 400 mg QPM, Age group (years) ≥44 (Median)
[10] = 400 mg QPM, Baseline BHRA BHRA+
[11] = 400 mg QPM, Baseline BHRA BHRA−
[12] = 400 mg QPM, Baseline Eosinophils (10^9/L) <0.165 (Median)
[13] = 400 mg QPM, Baseline Eosinophils (10^9/L) <0.3
[14] = 400 mg QPM, Baseline Eosinophils (10^9/L) ≥0.165 (Median)
[15] = 400 mg QPM, Baseline Eosinophils (10^9/L) ≥0.3
[16] = 400 mg QPM, Baseline H1-antihistamines dose 1-fold
[17] = 400 mg QPM, Baseline H1-antihistamines dose 2 to 4-fold standard dose
[18] = 400 mg QPM, Baseline ISS7 score <13
[19] = 400 mg QPM, Baseline ISS7 score ≥13
[20] = 400 mg QPM, Baseline Total IgE (IU/mL) <100
[21] = 400 mg QPM, Baseline Total IgE (IU/mL) <300
[22] = 400 mg QPM, Baseline Total IgE (IU/mL) ≥100
[23] = 400 mg QPM, Baseline Total IgE (IU/mL) ≥300
[24] = 400 mg QPM, Baseline UAS7 score <28
[25] = 400 mg QPM, Baseline UAS7 score ≥28
[26] = 400 mg QPM, Duration of disease (years) 2-10

In the case of CC(C)(C=C(C#N)C(=O)N1CCC[C@@H](n2nc(-c3ccc(Oc4ccccc4)cc3F)c3c(N)ncnc32)C1)N1CCN(C2COC2)CC1 [rilzabrutinib, (R)-2-[3-[4-amino-3-(2-fluoro-4-phenoxy-phenyl)pyrazolo[3,4-d]pyrimidin-1-yl]piperidine-1-carbonyl]-4-methyl-4-[4-(oxetan-3-yl)piperazin-1-yl]pent-2-enenitrile], the “Change from Baseline in ISS7 at Week 12, LS Mean Diff vs. placebo” value [1] is reported as −3.52, the “Change from Baseline in ISS7 at Week 12, Mean” value [1] is reported as −6.86 and the “Change from Baseline in ISS7 at Week 12, LS Mean” value (400 mg BID, Race White) is reported as −7.91. The “Change from Baseline in ISS7 at Week 12, LS Mean Diff vs. placebo” value (400 mg BID, Race White) was −1.90, the “Change from Baseline in ISS7 at Week 12, Mean” value (400 mg BID, Race White) was −7.64 and the “Change from Baseline in ISS7 at Week 12, LS Mean” value (400 mg BID, Region Asia) was −6.99. For the same compound, the “Change from Baseline in ISS7 at Week 12, LS Mean Diff vs. placebo” value (400 mg BID, Region Asia) was −3.54, the “Change from Baseline in ISS7 at Week 12, Mean” value (400 mg BID, Region Asia) was −6.86 and the “Change from Baseline in ISS7 at Week 12, LS Mean” value [2] was −4.38. The “Change from Baseline in ISS7 at Week 12, LS Mean Diff vs. placebo” value [2] was 8.28, the “Change from Baseline in ISS7 at Week 12, Mean” value [2] was −10.81 and the “Change from Baseline in ISS7 at Week 12, LS Mean” value [3] was −4.75. The “Change from Baseline in ISS7 at Week 12, LS Mean Diff vs. placebo” value [3] was 1.84, the “Change from Baseline in ISS7 at Week 12, Mean” value [3] was −4.42 and the “Change from Baseline in ISS7 at Week 12, LS Mean” value [4] was −10.12. The “Change from Baseline in ISS7 at Week 12, LS Mean Diff vs. placebo” value [4] was −5.57, the “Change from Baseline in ISS7 at Week 12, Mean” value [4] was 9.95 and the “ISS7 at Week 12, Mean” value [5] was 8.09. The “ISS7 at Week 12, Median” value [5] was 7.00, the “ISS7 change from baseline at Week 12, Mean” value [5] was −7.40 and the “ISS7 change from baseline at Week 12, Median” value [5] was −7.00. For the same compound, the “LS mean reduction in ISS7 (see Table 30)” value [5] was −5.06, the “ISS7 at Week 12, Mean” value [6] was 8.09 and the “ISS7 at Week 12, Median” value [6] was 7.00. The “ISS7 change from baseline at Week 12, Mean” value [6] was −7.40, the “ISS7 change from baseline at Week 12, Median” value [6] was −7.00 and the “ISS7 change from baseline at Week 12, LS Mean” value [6] was −7.76 points. The “ISS7 change from baseline at Week 12, LS Mean Diff vs. placebo” value [6] was −2.05, the “ISS7 change from baseline at Week 12, LS Mean” value [5] was −7.73 points and the “ISS7 change from baseline at Week 12, LS Mean Diff vs. placebo” value [5] was −1.96. For the same compound, the “Change from Baseline in ISS7 at Week 12, LS Mean” value [7] was −4.68, the “Change from Baseline in ISS7 at Week 12, LS Mean Diff vs. placebo” value [7] was −0.21 and the “Change from Baseline in ISS7 at Week 12, Mean” value [7] was −5.45. The “Change from Baseline in ISS7 at Week 12, LS Mean” value [8] was −4.78, the “Change from Baseline in ISS7 at Week 12, LS Mean Diff vs. placebo” value [8] was 0.88 and the “Change from Baseline in ISS7 at Week 12, Mean” value [8] was −5.68. The “Change from Baseline in ISS7 at Week 12, LS Mean” value [9] was −4.77, the “Change from Baseline in ISS7 at Week 12, LS Mean Diff vs. placebo” value [9] was 1.83 and the “Change from Baseline in ISS7 at Week 12, Mean” value [9] was −5.95. The “Change from Baseline in ISS7 at Week 12, Mean” value (400 mg QPM, Age group (years) ≥65) was −5.83, the “Change from Baseline in ISS7 at Week 12, LS Mean” value [10] was −8.50 and the “Change from Baseline in ISS7 at Week 12, LS Mean Diff vs. placebo” value [10] was −3.12. For the same compound, the “Change from Baseline in ISS7 at Week 12, Mean” value [10] was −9.13, the “Change from Baseline in ISS7 at Week 12, LS Mean” value [11] was −4.66 and the “Change from Baseline in ISS7 at Week 12, Mean” value [11] was −5.45. The “Change from Baseline in ISS7 at Week 12, LS Mean Diff vs. placebo” value (400 mg QPM, Baseline BMI (kg/m^2) ≥30) was 0.17, the “Change from Baseline in ISS7 at Week 12, LS Mean” value [12] was −4.00 and the “Change from Baseline in ISS7 at Week 12, LS Mean Diff vs. placebo” value [12] was 2.51. The “Change from Baseline in ISS7 at Week 12, Mean” value [12] was −4.93, the “Change from Baseline in ISS7 at Week 12, LS Mean” value [13] was −4.64 and the “Change from Baseline in ISS7 at Week 12, LS Mean Diff vs. placebo” value [13] was 0.83. The “Change from Baseline in ISS7 at Week 12, Mean” value [13] was −5.66, the “Change from Baseline in ISS7 at Week 12, LS Mean” value [14] was −5.54 and the “Change from Baseline in ISS7 at Week 12, LS Mean Diff vs. placebo” value [14] was −1.46. The “Change from Baseline in ISS7 at Week 12, Mean” value [14] was 6.55, the “Change from Baseline in ISS7 at Week 12, LS Mean” value [15] was −5.53 and the “Change from Baseline in ISS7 at Week 12, LS Mean Diff vs. placebo” value [15] was −0.68. For the same compound, the “Change from Baseline in ISS7 at Week 12, Mean” value [15] was −5.81, the “Change from Baseline in ISS7 at Week 12, LS Mean” value [16] was −4.24 and the “Change from Baseline in ISS7 at Week 12, LS Mean Diff vs. placebo” value [16] was 2.59. The “Change from Baseline in ISS7 at Week 12, Mean” value [16] was −5.09, the “Change from Baseline in ISS7 at Week 12, LS Mean” value [17] was −5.28 and the “Change from Baseline in ISS7 at Week 12, LS Mean Diff vs. placebo” value [17] was −1.80. The “Change from Baseline in ISS7 at Week 12, Mean” value [17] was −6.37, the “Change from Baseline in ISS7 at Week 12, LS Mean” value [18] was −1.87 and the “Change from Baseline in ISS7 at Week 12, LS Mean Diff vs. placebo” value [18] was 0.85. The “Change from Baseline in ISS7 at Week 12, Mean” value [18] was −4.42, the “Change from Baseline in ISS7 at Week 12, LS Mean” value [19] was −5.38 and the “Change from Baseline in ISS7 at Week 12, LS Mean Diff vs. placebo” value [19] was 0.36. The “Change from Baseline in ISS7 at Week 12, Mean” value [19] was −5.78, the “Change from Baseline in ISS7 at Week 12, LS Mean” value [20] was −3.37 and the “Change from Baseline in ISS7 at Week 12, LS Mean Diff vs. placebo” value [20] was 0.87. For the same compound, the “Change from Baseline in ISS7 at Week 12, Mean” value [20] was −4.48, the “Change from Baseline in ISS7 at Week 12, LS Mean” value [21] was −4.46 and the “Change from Baseline in ISS7 at Week 12, LS Mean Diff vs. placebo” value [21] was 0.05. The “Change from Baseline in ISS7 at Week 12, Mean” value [21] was −5.41, the “Change from Baseline in ISS7 at Week 12, LS Mean” value [22] was −5.51 and the “Change from Baseline in ISS7 at Week 12, LS Mean Diff vs. placebo” value [22] was 0.52. The “Change from Baseline in ISS7 at Week 12, Mean” value [22] was −6.28, the “Change from Baseline in ISS7 at Week 12, LS Mean” value [23] was −4.90 and the “Change from Baseline in ISS7 at Week 12, LS Mean Diff vs. placebo” value [23] was 1.64. The “Change from Baseline in ISS7 at Week 12, Mean” value [23] was −6.11, the “Change from Baseline in ISS7 at Week 12, LS Mean” value [24] was −3.33 and the “Change from Baseline in ISS7 at Week 12, LS Mean Diff vs. placebo” value [24] was −0.15. The “Change from Baseline in ISS7 at Week 12, Mean” value [24] was −5.32, the “Change from Baseline in ISS7 at Week 12, LS Mean” value [25] was −5.59 and the “Change from Baseline in ISS7 at Week 12, LS Mean Diff vs. placebo” value [25] was 1.01. For the same compound, the “Change from Baseline in ISS7 at Week 12, Mean” value [25] was −5.78, the “Change from Baseline in ISS7 at Week 12, LS Mean” value [26] was −5.24 and the “Change from Baseline in ISS7 at Week 12, LS Mean Diff vs. placebo” value [26] was 1.79. The “Change from Baseline in ISS7 at Week 12, Mean” value [26] was −6.43.
